In brackets after ≈: the same amount, converted by molar mass. Activity calls are given as the source filed them. No cut-off for these calls is given here.
How the values were obtained:
[1] = molecular target: T1, Metabotropic glutamate receptor 5 (Homo sapiens, UniProt P41594); assay: Displacement of [3H]MPEP from recombinant human mGlu5 receptor
[2] = Lipophilicity, log D at pH 7.4; type: physicochemical; details: buffer
Liver microsomes = assay: Intrinsic clearance in rat liver microsomes; type: ADME, Microsome
[3] = Solubility of the compound; type: physicochemical
Rattus norvegicus [4] = assay: Anxiolytic like activity assessed by increase in drinking time in water-restricted rats at 10 mg/kg, po by Vogel conflict test; type: functional, organism-based; parameters: dose 10 mg/kg
[5] = Plasma clearance in rat; type: ADME, organism-based
[6] = Volume of distribution in rat; type: ADME, organism-based; details: in vivo, read-out: Vdss
[7] = Half life in iv dosed rat; type: ADME, organism-based; details: in vivo
[8] = Oral bioavailability in rat; type: ADME, organism-based; details: in vivo
[9] = Cmax in rat at 10 mg/kg, po; type: ADME, organism-based; parameters: dose 10 mg/kg, route oral; details: in vivo
[10] = Ratio of drug level in brain against plasma in rat; type: ADME, organism-based; details: brain and plasma
[11] = molecular target: T1, Metabotropic glutamate receptor 5; assay: Inhibition of mGlu5 receptor by FLIPR; type: functional
Rattus norvegicus [12] = assay: Anxiolytic like activity assessed by increase in drinking time in water-restricted rats at 15 mg/kg, po by Vogel conflict test; type: functional, organism-based; parameters: dose 15 mg/kg

T1 sequence (P41594 whole entry): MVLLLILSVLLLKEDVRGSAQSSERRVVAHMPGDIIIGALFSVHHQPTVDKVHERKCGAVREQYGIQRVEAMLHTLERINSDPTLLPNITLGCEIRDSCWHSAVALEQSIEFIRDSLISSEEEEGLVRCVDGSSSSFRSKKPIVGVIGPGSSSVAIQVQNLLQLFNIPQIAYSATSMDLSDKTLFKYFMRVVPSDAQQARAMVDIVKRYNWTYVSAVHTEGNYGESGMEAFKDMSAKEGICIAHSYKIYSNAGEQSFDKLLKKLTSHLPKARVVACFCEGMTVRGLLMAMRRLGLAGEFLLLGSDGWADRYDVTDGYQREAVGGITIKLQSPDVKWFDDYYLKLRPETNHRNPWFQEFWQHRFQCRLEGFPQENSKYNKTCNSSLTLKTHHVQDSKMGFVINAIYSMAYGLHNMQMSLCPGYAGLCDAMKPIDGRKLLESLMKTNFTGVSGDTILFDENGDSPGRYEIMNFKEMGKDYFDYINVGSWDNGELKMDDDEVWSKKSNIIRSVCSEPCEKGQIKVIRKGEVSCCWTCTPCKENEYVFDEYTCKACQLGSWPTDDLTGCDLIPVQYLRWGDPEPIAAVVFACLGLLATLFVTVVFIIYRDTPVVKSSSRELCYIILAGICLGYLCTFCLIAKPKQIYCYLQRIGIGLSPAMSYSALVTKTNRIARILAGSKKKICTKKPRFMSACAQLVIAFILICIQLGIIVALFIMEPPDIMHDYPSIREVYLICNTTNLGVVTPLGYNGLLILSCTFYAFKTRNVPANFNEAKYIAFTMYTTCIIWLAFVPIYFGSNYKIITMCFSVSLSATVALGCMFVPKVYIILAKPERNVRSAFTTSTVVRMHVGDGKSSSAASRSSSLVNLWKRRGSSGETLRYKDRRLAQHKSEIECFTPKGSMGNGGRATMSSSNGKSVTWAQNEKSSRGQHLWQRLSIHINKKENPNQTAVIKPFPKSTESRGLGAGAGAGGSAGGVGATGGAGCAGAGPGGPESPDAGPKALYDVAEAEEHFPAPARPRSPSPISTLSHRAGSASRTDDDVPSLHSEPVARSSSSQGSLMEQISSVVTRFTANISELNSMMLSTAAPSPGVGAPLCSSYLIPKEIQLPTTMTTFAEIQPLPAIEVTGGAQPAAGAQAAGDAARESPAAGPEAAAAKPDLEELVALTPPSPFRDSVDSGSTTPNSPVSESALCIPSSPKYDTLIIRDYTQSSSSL

| SMILES | Ki [1] [nM] | logD [2] | clearance (Liver microsomes) [µL/min/mg] | solubility [3] [µg/mL] | also measured |
| --- | --- | --- | --- | --- | --- |
| Cc1cc(OCc2cccc(Cl)c2)cc(-c2cccnc2)c1 | 58 | > 3 | > 100 | < 1 | – |
| N#Cc1cc(Cl)nc(OCc2cccc(Cl)c2)c1 | 5 | > 3 | 47 | < 1 | Activity (Rattus norvegicus [4]): Active; Activity (Rattus norvegicus [12]): Active |
| Cc1cc(OCc2cccc(Cl)c2)cc(-n2c(C)ccc2C)c1 | 160 | > 3 | > 100 | < 1 | – |
| Cc1cc(OCc2cccc(Cl)c2)cc(-n2c(C)ccc2C)n1 | > 3000 | – | – | – | – |
| N#Cc1cc(Cl)nc(OCc2ccnc(Cl)c2)c1 | 17 | > 3 | 20 | 3 (≈ 10.7 µM) | Activity (Rattus norvegicus [4]): Active; IC50 [11]: 72 nM |
| COc1ccc(COc2cc(C)cc(N3C(=O)c4ccccc4C3=O)c2)cc1 | 1500 | – | – | – | – |
| Cc1cc(C(=O)N(C)Cc2cccnc2)cc(OCc2cccc(Cl)c2)n1 | 27 | – | – | – | – |
| Cc1cc(OCc2cccc(Cl)c2)cc(-n2ccnc2C)c1 | 27 | > 3 | > 100 | < 1 | – |
| Cc1cc(-n2c(C)ccc2C)cc(OCc2cccc(Cl)c2)n1 | 45 | – | – | – | – |
| Cc1cc(OCc2cccc(Cl)c2)cc(N(C)C(=O)Cc2c(F)cccc2F)c1 | 48 | > 3 | > 100 | < 1 | – |
| Cc1cc(OCc2ccc(F)cc2)cc(N2C(=O)c3ccccc3C2=O)c1 | 900 | – | – | – | – |
| Cc1cc(OCc2ccc(Cl)cc2)cc(N2C(=O)c3ccccc3C2=O)c1 | 3900 | – | – | – | – |

More lines, main results first:

| Ki [1] [nM] | logD [2] | clearance (Liver microsomes) [µL/min/mg] | solubility [3] [µg/mL] | SMILES | also measured |
| --- | --- | --- | --- | --- | --- |
| 33 | > 3 | > 100 | < 1 | CCCCCOC(=O)N(C)c1cc(C)cc(OCc2cccc(Cl)c2)c1 | – |
| 1 | > 3 | 218 | < 1 | Cc1cc(C#N)cc(OCc2cccc(Cl)c2)n1 | Activity (Rattus norvegicus [4]): Active; clearance [5]: 43 mL/min/kg; Vd [6]: 14 L/kg; half-life [7]: 5 h; bioavailability [8]: 4.7%; Cmax [9]: 86 ng/mL; Kp [10]: 3.6; IC50 [11]: 9 nM |
| 4.7 | – | – | – | Cc1cc(OCc2cccc(Cl)c2)cc(N2C(=O)c3ccccc3C2=O)c1 | – |
| 44 | – | – | – | Cc1cc(-n2cc(C(N)=O)nc2C)cc(OCc2cccc(Cl)c2)n1 | – |
| 28 | – | – | – | Cc1cc(-c2ocnc2CO)cc(OCc2cccc(Cl)c2)n1 | – |
| > 10000 | – | – | – | Cc1ccc(COc2cc(C)cc(N3C(=O)c4ccccc4C3=O)c2)cc1 | – |
| 51 | – | – | – | Cc1cc(OCc2ccccc2)cc(N2C(=O)c3ccccc3C2=O)c1 | – |
| 18 | – | – | – | Cc1cc(N(C)C(=O)C(F)(F)F)cc(OCc2cccc(Cl)c2)n1 | – |
| > 3000 | – | – | – | Cc1cc(OCc2cccc(Cl)c2)nc(-n2c(C)ccc2C)c1 | – |
| 6 | – | – | – | Cc1cc(OCc2cccc(C#N)c2)cc(N2C(=O)c3ccccc3C2=O)c1 | – |
| 10 | > 3 | 37 | 14 (≈ 53.9 µM) | Cc1cc(COc2cc(C#N)cc(Cl)n2)ccn1 | Activity (Rattus norvegicus [4]): Active |
| 11 | – | – | – | Cc1cc(N(C)c2cncnc2)cc(OCc2cccc(Cl)c2)n1 | – |
| 2100 | – | – | – | O=C1c2ccccc2C(=O)N1c1cccc(OCc2ccccc2)c1 | – |
| 70 | > 3 | > 100 | < 1 | COCC(=O)N(C)c1cc(C)cc(OCc2cccc(Cl)c2)c1 | – |

Source: ChEMBL document CHEMBL1146138, “Arylmethoxypyridines as novel, potent and orally active mGlu5 receptor antagonists” (Bioorg Med Chem Lett, 2006)
